Experimental data published in publication PMC9598311, “Identification of a Small Molecule That Inhibits the Interaction of LPS Transporters LptA and LptC” (Antibiotics, 2022).

T1: LptA (Escherichia coli, UniProt P0ADV1)
T1 construct: synthetic gene in pET-28a, N-terminal 6-His tag, expressed in E. coli BL21(DE3), His-Trap purified
T1 sequence (P0ADV1 28-185): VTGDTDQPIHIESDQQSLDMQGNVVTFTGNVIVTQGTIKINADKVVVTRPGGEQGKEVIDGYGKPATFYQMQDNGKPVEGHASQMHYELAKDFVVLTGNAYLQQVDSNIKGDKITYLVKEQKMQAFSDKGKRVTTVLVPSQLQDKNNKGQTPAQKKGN

T2: LptC (Escherichia coli, UniProt P0ADV9)
T2 construct: synthetic gene in pET-28a, N-terminal 6-His tag, expressed in E. coli BL21(DE3), His-Trap purified
T2 sequence (P0ADV9 1-191): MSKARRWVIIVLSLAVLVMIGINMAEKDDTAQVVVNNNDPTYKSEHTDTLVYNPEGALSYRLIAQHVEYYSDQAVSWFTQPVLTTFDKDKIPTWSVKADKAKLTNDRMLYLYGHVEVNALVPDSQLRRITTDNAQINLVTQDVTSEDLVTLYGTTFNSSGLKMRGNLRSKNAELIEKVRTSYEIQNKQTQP

T3: LptC protein with a 6-His tag at the N-terminal (Escherichia coli) (UniProt P0ADV9)
T3 sequence (P0ADV9 whole entry, looked up): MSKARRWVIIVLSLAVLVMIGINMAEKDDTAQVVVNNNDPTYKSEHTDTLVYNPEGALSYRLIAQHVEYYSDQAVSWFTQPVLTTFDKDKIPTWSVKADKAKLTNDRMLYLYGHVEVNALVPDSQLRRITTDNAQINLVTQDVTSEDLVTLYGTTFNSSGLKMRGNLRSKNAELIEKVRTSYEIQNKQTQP


Tests used:
[1] = target: T1, LptA; test: SPR, LptA immobilized on carboxymethyl dextran chip; type: binding
Source text: SPR, LptA immobilized on carboxymethyl dextran chip on LptA

[2] = target: T2, LptC; test: SPR, LptC immobilized on carboxymethyl dextran chip; type: binding
Source text: SPR, LptC immobilized on carboxymethyl dextran chip on LptC

[3] = system: T4, LptA/LptC; test: SPR, LptA preincubated with compound passed over immobilized LptC; type: binding, Escherichia coli; conditions: inhibition of LptA/LptC protein-protein interaction; LptA 15 ug/mL, compound 0-4 ug/mL, PBST
T4 construct: complex formed on chip: LptC immobilized, LptA in solution; both N-terminal 6-His tagged, expressed in E. coli BL21(DE3)

[4] = target: T3, LptC protein with a 6-His tag at the N-terminal (Escherichia coli); test: SPR; Reichert SPR system; LptC immobilised on a mixed self-assembled monolayer (SAM) sensor chip; LptA 0.164 µM to 2.624 µM in PBST (0.01 M Na Phosphate, 0.15 M NaCl, 0.05% Tween 20) passed over; regeneration 1 M NaCl 90 s; TraceDrawer 1.7.1

Molecule	Kd [1]	Kd [2]	SPR, LptA preincubated with compound passed over immobilized LptC [3]	Kd [4]	koff [4]	kon [4]
CN(C)c1ccc(/C=C/c2cc(C(C)(C)C)[o+]c(C(C)(C)C)c2)cc1 [IMB-0042]	4.67 µM	32.6 µM	Compound IMB-0042 blocked LptA/LptC interaction.	–	–	–
LptA protein with a 6-His tag at the N-terminal (natural protein) VTGDTDQPIHIESDQQSLDMQGNVVTFTGNVIVTQGTIKINADKVVVTRPGGEQGKEVIDGYGKPATFYQMQDNGKPVEGHASQMHYELAKDFVVLTGNAYLQQVDSNIKGDKITYLVKEQKMQAFSDKGKRVTTVLVPSQLQDKNNKGQTPAQKKGN	–	–	–	2.28 µM	0.385 s⁻¹	169000 M⁻¹ s⁻¹
